Assay results taken from the CombiSolv-Exp solvation set (Vermeire and Green 2021).

Test: solvent given as SMILES

CC(C)c1ccccc1
Settings | solvation free energy, 298 K [kcal/mol]
in C1CCOC1 | -6.5
in CC#N | -5.53
in CC(C)=O | -5.89
in CC(C)O | -5.21
in CCCCCCC | -5.72
in CCCCCCCCO | -5.43
in CO | -5.18
in NC=O | -3.38
in O | -0.34
in O=CN1CCOCC1 | -5.28
in OCCO | -3.54
in OCCOCCO | -4.43
in OCCOCCOCCO | -4.56

Oc1ccc(F)cc1
Settings | solvation free energy, 298 K [kcal/mol]
in O | -6.19

CCCCC[N+](=O)[O-]
Settings | solvation free energy, 298 K [kcal/mol]
in O | -2.82

CCCC(C)(C)C
Settings | solvation free energy, 298 K [kcal/mol]
in C=CCCCCCCCCCCCCCC | -3.7
in CC#N | -2.7
in CN1CCCC1=O | -2.66
in O | 2.88

C1COCCN1
Settings | solvation free energy, 298 K [kcal/mol]
in C1COCCO1 | -5.72
in O | -7.17

CC(C)CCC(C)C
Settings | solvation free energy, 298 K [kcal/mol]
in Brc1ccccc1 | -4.53
in C1CCCCC1 | -5.02
in C1CCOC1 | -4.85
in C1COCCO1 | -4.04
in C=CCCCC | -4.95
in C=CCCCCCC | -4.85
in C=CCCCCCCCC | -4.75
in CC1COC(=O)O1 | -2.64
in CC#N | -3.31
in CC(=O)N(C)C | -3.54
in CC(=O)O | -3.59
in CC(=O)c1ccccc1 | -3.84
in CC(C)=O | -4.03
in CC(C)CC(C)(C)C | -4.84
in CC(C)CCCC(C)CCCC(C)CCCCC(C)CCCC(C)CCCC(C)C | -4.35
in CC(C)CCO | -4.21
in CC(C)O | -3.99
in CC(C)OC(C)C | -4.85
in CCBr | -4.97
in CCC#N | -3.76
in CCC(C)=O | -4.29
in CCCC#N | -4
in CCCC(=O)OCC | -4.52
in CCCC(C)=O | -4.38
in CCCCC | -5.01
in CCCCCC | -4.97
in CCCCCC(C)=O | -4.4
in CCCCCCC | -4.9
in CCCCCCCC | -4.83
in CCCCCCCCC | -4.79
in CCCCCCCCCC | -4.74
in CCCCCCCCCCCC | -4.63
in CCCCCCCCCCCCCCCC | -4.53
in CCCCCCCCO | -4.21
in CCCCCCOC(C)=O | -4.48
in CCCCO | -4.1
in CCCCOC(C)=O | -4.46
in CCCCOCCCC | -4.81
in CCCO | -4.07
in CCN(CC)CC | -4.89
in CCO | -3.92
in CCOC(C)=O | -4.31
in CCOCC | -4.91
in CCOCCOCCOCC | -4.23
in CCOc1ccccc1 | -4.31
in CN1CCCC1=O | -3.42
in CN(C)C=O | -3.35
in CN(C)P(=O)(N(C)C)N(C)C | -3.84
in CNC=O | -2.97
in CO | -3.55
in COC(C)=O | -4.11
in COCCO | -3.43
in COc1ccccc1 | -4.22
in CS(C)=O | -2.41
in Cc1ccc(C)cc1 | -4.77
in Cc1ccccc1 | -4.76
in Cc1ccccn1 | -4.33
in ClC(Cl)(Cl)Cl | -5.01
in ClC(Cl)Cl | -4.88
in ClCCCl | -4.29
in ClCCl | -4.64
in Clc1ccccc1 | -4.75
in FC(F)(F)C(F)(F)C(F)(F)C(F)(F)C(F)(F)C(F)(F)C(F)(F)C(F)(F)F | -3.22
in FC(F)(F)C(F)(F)C(F)(F)C(F)(F)C(F)(F)C(F)(F)F | -3.3
in Fc1ccccc1 | -4.66
in ICI | -2.71
in N#Cc1ccccc1 | -3.85
in Nc1ccccc1 | -3.11
in O | 2.78
in O=C1CCCCC1 | -4.2
in O=C1CCCO1 | -2.85
in OCc1ccccc1 | -3.33
in S=C=S | -4.94
in c1ccccc1 | -4.76
in c1ccncc1 | -4.06

C=C(C)C1=CC=C(C)CC1
Settings | solvation free energy, 298 K [kcal/mol]
in O | -1.35

O=[N+]([O-])c1cccc2ccccc12
Settings | solvation free energy, 298 K [kcal/mol]
in CC(C)(C)O | -9.71
in CC(C)CC(C)(C)C | -9.18
in CC(C)CCO | -9.67
in CC(C)CO | -9.55
in CC(C)O | -9.78
in CC(C)OC(C)C | -10.4
in CCC(C)O | -9.94
in CCCC(C)O | -9.83
in CCCCC(CC)CO | -9.76
in CCCCCC | -9.35
in CCCCCCC | -9.37
in CCCCCCCC | -9.38
in CCCCCCCCCC | -9.39
in CCCCCCCCCCO | -9.94
in CCCCCCCCO | -9.98
in CCCCCCCO | -9.98
in CCCCCCO | -10
in CCCCCO | -9.99
in CCCCO | -9.97
in CCCCOCCCC | -10.2
in CCCO | -9.99
in CCO | -10.1
in CCOCC | -11
in COC(C)(C)C | -10.9
in O | -5.65

O=C(O)CCCCc1ccccc1
Settings | solvation free energy, 298 K [kcal/mol]
in O | -8.68

O=c1[nH]c2ccccc2n1C1CCN(CCCC(c2ccc(F)cc2)c2ccc(F)cc2)CC1
Settings | solvation free energy, 298 K [kcal/mol]
in C1COCCO1 | -27.7
in CC(C)O | -26.4
in CCCCCCCCO | -26.7
in CCCCCCCO | -26.8
in CCCCCCO | -26.7
in CCCCCO | -26.8
in CCCCO | -26.7
in CCCO | -26.6
in CCO | -26.6
in CCOC(C)=O | -26.6
in CO | -26.6

CCCCC
Settings | solvation free energy, 298 K [kcal/mol]
in BrC(Br)C(Br)Br | -2.06
in Brc1ccccc1 | -2.95
in C1=Cc2ccccc2C1 | -2.75
in C1CCCCC1 | -3.34
in C1CCOC1 | -3.22
in C1COCCO1 | -2.6
in C=CCCCC | -3.34
in C=CCCCCCC | -3.24
in C=CCCCCCCCC | -3.16
in C=CCCCCCCCCCCCCCC | -2.88
in CC1COC(=O)O1 | -1.59
in CC#N | -2.15
in CC(=O)CC(C)C | -2.86
in CC(=O)N(C)C | -2.29
in CC(=O)O | -2.36
in CC(=O)c1ccccc1 | -2.43
in CC(C)=O | -2.73
in CC(C)CC(C)(C)C | -3.24
in CC(C)CCCC(C)CCCC(C)CCCCC(C)CCCC(C)CCCC(C)C | -2.8
in CC(C)CCO | -2.82
in CC(C)O | -2.6
in CC(C)OC(C)C | -3.35
in CCBr | -3.45
in CCC#N | -2.59
in CCC(C)=O | -2.82
in CCC(C)O | -2.65
in CCCC#N | -2.48
in CCCC(=O)OCC | -3
in CCCC(C)=O | -2.89
in CCCCC(CC)COC(=O)CCCCC(=O)OCC(CC)CCCC | -2.65
in CCCCC(CC)COC(=O)c1ccccc1C(=O)OCC(CC)CCCC | -2.47
in CCCCCC | -3.36
in CCCCCC(C)=O | -2.92
in CCCCCCC | -3.27
in CCCCCCCC | -3.24
in CCCCCCCCC | -3.18
in CCCCCCCCC=CCCCCCCCC(=O)OCC(COC(=O)CCCCCCCC=CCCCCCCCC)OC(=O)CCCCCCCC=CCCCCCCCC | -2.77
in CCCCCCCCCC | -3.16
in CCCCCCCCCCCC | -3.05
in CCCCCCCCCCCCCC | -2.9
in CCCCCCCCCCCCCCCC | -2.93
in CCCCCCCCCOC(=O)c1ccccc1C(=O)OCCCCCCCCC | -2.55
in CCCCCCCCN(CCCCCCCC)CCCCCCCC | -2.81
in CCCCCCCCO | -2.7
in CCCCCCCO | -2.66
in CCCCCCO | -2.68
in CCCCCCOC(C)=O | -2.96
in CCCCCN(CCCCC)CCCCC | -2.98
in CCCCCO | -2.65
in CCCCCl | -3.22
in CCCCN(C=O)CCCC | -2.59
in CCCCN(CCCC)CCCC | -2.9
in CCCCO | -2.7
in CCCCOC(=O)c1ccccc1C(=O)OCCCC | -2.59
in CCCCOC(C)=O | -2.94
in CCCCOCCCC | -3.19
in CCCO | -2.58
in CCN1CCCC1=O | -2.25
in CCN(CC)C(C)=O | -2.48
in CCN(CC)CC | -3.31
in CCNC(C)=O | -2.35
in CCNC=O | -2.11
in CCO | -2.51
in CCOC(=O)c1ccccc1C(=O)OCC | -2.11
in CCOC(C)=O | -2.85
in CCOCC | -3.3
in CCOCCOCCOCC | -2.79
in CCOc1ccccc1 | -2.82
in CN1CCCC1=O | -2.18
in CN1CCCCC1=O | -2.16
in CN1CCN(C)C1=O | -1.88
in CN(C)C=O | -2.18
in CN(C)P(=O)(N(C)C)N(C)C | -2.39
in CNC(C)=O | -2.17
in CNC=O | -1.87
in CO | -2.29
in COC(C)=O | -2.66
in COCCO | -2.16
in COCCOCCOCCOCCOC | -2.2
in COc1ccccc1 | -2.76
in CS(C)=O | -1.41
in Cc1ccc(C)cc1 | -3.16
in Cc1cccc2ccccc12 | -2.63
in Cc1cccc(C)c1 | -3.11
in Cc1cccc(O)c1 | -2.28
in Cc1ccccc1 | -3.15
in Cc1ccccn1 | -2.82
in ClC(Cl)(Cl)Cl | -3.32
in ClC(Cl)C(Cl)Cl | -2.77
in ClC(Cl)Cl | -3.23
in ClCCCl | -2.77
in ClCCl | -3.07
in Clc1cccc2ccccc12 | -2.5
in Clc1ccccc1 | -3.14
in FC(F)(F)C(F)(F)C(F)(F)C(F)(F)C(F)(F)C(F)(F)C(F)(F)C(F)(F)F | -2.06
in FC(F)(F)C(F)(F)C(F)(F)C(F)(F)C(F)(F)C(F)(F)F | -2.15
in Fc1ccccc1 | -3.25
in ICI | -1.67
in Ic1ccccc1 | -2.61
in N#CCCCCC#N | -1.32
in N#CCc1ccccc1 | -1.99
in N#Cc1ccccc1 | -2.48
in NC=O | -0.44
in NCCO | -0.27
in Nc1ccccc1 | -1.89
in O=C1CCCCC1 | -2.73
in O=C1CCCO1 | -1.72
in O=C(O)C(Cl)Cl | -2.12
in O=CN1CCOCC1 | -1.51
in O=Cc1ccco1 | -1.8
in OC1CCCCC1 | -2.46
in OCCO | -0.34
in OCCOCCO | -0.86
in OCCc1ccccc1 | -2.12
in OCc1ccccc1 | -2.06
in OCc1ccco1 | -1.67
in S=C=S | -3.29
in c1ccc2ncccc2c1 | -2.54
in c1ccccc1 | -3.15
in c1ccncc1 | -2.64
